Experimental findings from patent US4563471A, “4-Oxothiazolidin-2-ylidene-acetamide derivatives as CNS agents” (Warner-Lambert Company, priority 1983, dated 1986) are described below.

Read-outs that look alike come from different tables or passages of the source.

Series [1] deals with male mice (NMRI). Put plainly: Electroshock. The series is classed as in vivo, mouse. As to the method:
(§1) In the case of all substances, there was used in the cramp test as vehicle 0.8% Methocel mucilage. The premedication time amounted to 30 minutes, insofar as nothing else is stated, and the administration took place i.g. in 20 ml/kg body weight.
(§2) Experimental animals were male mice (NMRI) with a body weight of 18 to 24 g., which were kept under controlled conditions. Twenty-four hours (if not stated otherwise) before commencement of the experiment, the feed was withdrawn but, up to the commencement of the experiment, the drinking water was left.
(§3) Per dosage, in each case ten animals were subjected to the test.
3. […] For the transmission of the current impact, electrodes in the form of ear clips were fixed to the ears of the mouse. The period of the shock amounted to 0.3 s., the current strength to 35 mA (voltage self-regulating).

The test system of series [2] is male mice (NMRI). As to the kind of experiment: Pentetrazole cramp. The series is classed as in vivo, mouse. The note with it: po, 20 min; for ED50: read-out: ED50 pentetrazole cramp. As to the method: as §1, §2, §3
The test system of series [3] is male mice (NMRI). Put plainly: Semicarbazide cramp. The class given is in vivo, mouse. The conditions noted are these: po, 1.5 h; for ED50: read-out: ED50 semicarbazide cramp. As to the method: as §1, §2, §3
7. Semicarbazide cramp--Semicarbazide hydrochloride was used as cramp agent in a dosage of 1000 mg/kg s.c. The observation time amounted in each case to 90 minutes p.a.

The test system of series [4] is male mice (NMRI). As to the kind of experiment: Picrotoxin cramp. The conditions noted are these: for ED50: Mus musculus, po, 20 min, read-out: ED50 picrotoxin cramp; for ED50 picrotoxin cramp: i.g., male mouse, picrotoxin 15 mg/kg s.c., observation 20 min. The series is classed as in vivo, mouse. As to the method: as §1, §2, §3
The subject of series [5] is male mice (NMRI). Put plainly: Strychnine cramp. The class given is in vivo, mouse. The note with it: for ED50 strychnine cramp: i.g., male mouse, strychnine 1.1 mg/kg s.c., observation 20 min; for ED50: Mus musculus, po, 20 min, read-out: ED50 strychnine cramp. As to the method:
as §1, §2, §3
2. Strychnine cramp--As convulsive, there was used strychnine nitric cryst in a dosage of 1.1 mg/kg s.c., whereby the observation time amount to 20 minutes p.a.

For series [6], the system named is male mice (NMRI). Put plainly: Isoniazide cramp. The class given is in vivo, mouse. The conditions noted are these: po, 1.5 h, read-out: ED50 isoniazide cramp. As to the method: as §1, §2, §3
For series [7], the system named is male mice (NMRI). As to the kind of experiment: Bicuculline cramp. The class given is in vivo. The conditions noted are these: po, 20 min; i.g., male mouse; bicuculline 3.0 mg/kg s.c.; observation 20 min. As to the method: as §1, §2, §3
(§4) As positive standard, there were used phenytoin, valproate, GABA and baclofen.
6. Bicuculline cramp--Cramp agent was bicuculline purum. The dosage amounted to 3.0 mg/kg s.c. The observation time amount to 20 minutes.

A further series deals with DBA/2j mice. Put plainly: Audiogenic cramps. The class given is in vivo, mouse. The conditions noted are these: po, 1 min, read-out: ED50 audiogenic cramp. As to the method: as §1
(§5) In the case of the audiogenic cramps, DBA/2j mice of male sex were used in a weight of 5-10 g which, on the day before the experiment, were removed and not fasted.
as §3
9. […] The observation time amount to one minute.

For series [8], the system named is male mice (NMRI). Put plainly: 3-Mercaptopropionic acid cramp (3-MPA). The series is classed as in vivo, mouse. The note with it: po, 0.5 h, read-out: ED50 3-MPA cramp. As to the method: as §1, §2, §3
8. 3-Mercaptopropionic acid--3-Mercaptopropionic acid was diluted with physiological NaCl solution, adjusted with 6 mol/l NaOH to PH 7 and brought with NaCl solution to the end volume (10 ml/kg). The observation time amounted to 30 minutes.

The next series is described as follows: in vivo. The conditions noted are these: mouse, po. As to the method: The determination of the acute toxicity was carried out on male mice (NMRI) with a body weight of 18-23 g. All experimental animals were fasted for 20 hours before commencement of the experiment. Water was available ad libitum. To each dosage group there belonged four animals. The dosage sequence was logarithmic. The test substances were administered intragastrally as suspension in 0.88% Methocel. The volume of administration amounted to 20 ml/kg.

Another series relates to mice. As to the kind of experiment: Comparative investigations of the anticonvulsive action in cramp models 1-9 (overall). The class given is in vivo. The note with it: all cramp models, i.g., male mouse. As to the method:
as §1, §2, §5, §3, §4

Where [9] appears, read: i.g., male mouse, isoniazide 250 mg/kg s.c., observation 90 min.
The mark [10] stands for this setting: i.g., male DBA/2j mouse, 10.9 KHz sound of 110 dBA, 30 s, observation 1 min.
[11] abbreviates: i.g., male mouse, pentetrazole 140 mg/kg s.c., observation 20 min.
Setting [12] is: i.g., male mouse, semicarbazide hydrochloride 1000 mg/kg s.c., observation 90 min.
The mark [13] stands for this setting: po, 5 min, i.g., male mouse, 35 mA, 0.3 s, observation 5 min, read-out: ED50 electroshock.
[14] abbreviates: i.g., male mouse, 3-mercaptopropionic acid, observation 30 min.

For orientation: ED50 means the dose at which the effect has come halfway, by size or by number of responders. Regarding `O=C1NC(=O)C(c2ccccc2)(c2ccccc2)N1` [phenytoin], the ED50 in the series on male mice (NMRI) [1] (Mus musculus, iv, 5 min, read-out: ED50 electroshock (i.v.)) was 12.5 mg/kg; with male mice (NMRI) [4] it was 200 mg/kg; in the series with male mice (NMRI) [6] (setting [9]), 38 mg/kg; with male mice (NMRI) [7] it was 12.5 mg/kg; in the series on DBA/2j mice (setting [10]), 2.3 mg/kg. The ED100 was determined as 50 mg/kg with male mice (NMRI) [1] (po, 5 min, ED 100, i.g., male mouse) and 50 mg/kg with male mice (NMRI) [2] (ED 100, i.g., male mouse). Also, in the series with male mice (NMRI) [3] (ED 90, i.g., male mouse), the ED90 was 50 mg/kg. The ED50 strychnine cramp result in the series with male mice (NMRI) [5] is “inactive”.
As for `NCCCC(=O)O` [GABA], in the series on male mice (NMRI) [1] (i.g., male mouse, 35 mA, 0.3 s, observation 5 min), the ED50 electroshock result was “inactive”. Besides, the figures for the ED50 in the series on male mice (NMRI) [2] (setting [11]) and in the series with male mice (NMRI) [3] (setting [12]) were 500 mg/kg and 60 mg/kg, respectively. Besides, the ED50 picrotoxin cramp result in the series with male mice (NMRI) [4] was “inactive”. Further, the ED50 strychnine cramp entry with male mice (NMRI) [5] was “inactive”.
In general, LD50 refers to the dose at which mortality reaches 50%. A high value points to lower toxicity. With `Cc1cccc(C)c1NC(=O)/C=C1\SCC(=O)N1C` [2 (a), (Z)-(3-Methyl-4-oxothiazolidin-2-ylidene)-N-(2,6-dimethylphenyl)-acetamide], the ED50 with male mice (NMRI) [1] (setting [13]) is 13.6 mg/kg; in the series on male mice (NMRI) [2] (setting [11]) it was 19.9 mg/kg; in the series with male mice (NMRI) [3] (setting [12]), 14.1 mg/kg; with male mice (NMRI) [4], 11.3 mg/kg; in the series on male mice (NMRI) [5], 14.9 mg/kg; in the series on male mice (NMRI) [8] (setting [14]), 8.7 mg/kg. The results for the ED50 in the series with male mice (NMRI) [6] (setting [9]), in the series on male mice (NMRI) [7] and in the series with DBA/2j mice (setting [10]) were 5.32 mg/kg, 2.68 mg/kg and 2.9 mg/kg, respectively. Moreover, the LD50 at 168 h in “in vivo” is 1980 mg/kg. Also, in “in vivo”, the selectivity ratio fell in the range of 99.8 to 739.
Take `Cc1cccc(Cl)c1NC(=O)/C=C1\SCC(=O)N1C` [2 (i), (Z)-(3-methyl-4-oxothiazolidin-2-ylidene)-N-(2-chloro-6-methylphenyl)-acetamide]: the ED50 in the series with male mice (NMRI) [1] (setting [13]) is 6.47 mg/kg; in the series on male mice (NMRI) [2] (setting [11]) it was 1.9 mg/kg; with male mice (NMRI) [3] (setting [12]) it was 1.59 mg/kg; in the series on male mice (NMRI) [4], 2.34 mg/kg; in the series on male mice (NMRI) [5] it was 5.09 mg/kg; in the series with male mice (NMRI) [8] (setting [14]) it was 1.29 mg/kg. The ED50 in the series with male mice (NMRI) [6] (setting [9]) was 1.24 mg/kg; in the series on male mice (NMRI) [7], 0.9 mg/kg; with DBA/2j mice (setting [10]), 3 mg/kg. Also, the LD50 at 168 h in the series “in vivo” is more than 1600 mg/kg. Also, the selectivity ratio in the series “in vivo” fell in the range of 243 to 1780.
Consider `NCC(CC(=O)O)c1ccc(Cl)cc1` (centres unmarked) [baclofen], for which the ED50 in the series with male mice (NMRI) [1] (Mus musculus, po, 5 min, read-out: ED50 electroshock) is 20 mg/kg; with male mice (NMRI) [2] (Mus musculus) it was 100 mg/kg; with male mice (NMRI) [3] (Mus musculus) it was 4 mg/kg; in the series with male mice (NMRI) [4], 30 mg/kg; with male mice (NMRI) [5] it was 8.5 mg/kg; in the series on male mice (NMRI) [8] (Mus musculus), 20 mg/kg. The ED50 in the series with male mice (NMRI) [6] (Mus musculus) was determined as 2 mg/kg; in the series with male mice (NMRI) [7] it was 20 mg/kg; in the series with DBA/2j mice (Mus musculus), 5 mg/kg. In addition, the LD50 at 168 h in “in vivo” is 200 mg/kg. Moreover, the selectivity ratio in the series “in vivo” was in the range of 2 to 100. In addition, the Side effects result in the series on mice is “Side effects in all models”.
As to `CN1C(=O)CS/C1=C\C(=O)Nc1c(Cl)cccc1Cl` [2 (j), (Z)-(3-methyl-4-oxothiazolidin-2-ylidene)-N-(2,6-dichlorophenyl)-acetamide], the ED50 with male mice (NMRI) [1] (setting [13]) was determined as 4.03 mg/kg; with male mice (NMRI) [2] (setting [11]), 1.8 mg/kg; in the series on male mice (NMRI) [3] (setting [12]) it was 3.41 mg/kg; in the series with male mice (NMRI) [4], 1.52 mg/kg; with male mice (NMRI) [5], 5.68 mg/kg; with male mice (NMRI) [8] (setting [14]), 1.73 mg/kg. Also, the ED50 with male mice (NMRI) [6] (setting [9]) was found to be 5 mg/kg; in the series on male mice (NMRI) [7] it was 0.8 mg/kg; in the series on DBA/2j mice (setting [10]) it was 2 mg/kg. This compound also yielded an LD50 at 168 h in the series “in vivo” of 1600 mg/kg. Further, in the series “in vivo”, the selectivity ratio is 282 to 2000.
Regarding `CCCC(CCC)C(=O)O` [valproate], the ED40 in the series with male mice (NMRI) [1] (Mus musculus, po, 5 min, read-out: ED 40 electroshock) amounted to 200 mg/kg. In addition, the ED50 is approximately 250 mg/kg in the series with male mice (NMRI) [2] (Mus musculus), 100 mg/kg in the series with male mice (NMRI) [3] (Mus musculus), 154 mg/kg in the series with male mice (NMRI) [8] (Mus musculus) and 135 mg/kg in the series with male mice (NMRI) [6] (Mus musculus). The ED50 picrotoxin cramp entry in the series on male mice (NMRI) [4] is “inactive”. Moreover, in the series with male mice (NMRI) [5], the ED50 strychnine cramp entry is “inactive”. In the series “in vivo”, this compound displayed an LD50 at 168 h of 2000 mg/kg. Further, in “in vivo”, the selectivity ratio was 8 to 14.8.
